Source: patent EP2607478A1, “Phenanthroline treated MSC” (Universiteit Twente, priority 2011, dated 2013)

Tested on: MSCs
Assay: Whole genome expression analysis (Illumina microarray) of treated MSCs
Format: cell-based, Human
Settings: DFO versus Bas
Description: MSCs were seeded in T25 flasks at 5000 cells/cm^2 and allowed to attach overnight in proliferation medium. […] After 48 hours, RNA was isolated as described above. From 500 ng of RNA, cRNA was synthesized using the Illumina TotalPrep RNA amplification Kit (Ambion), according to the manufacturer's protocol and the quality of RNA and cRNA was verified on a Bioanalyzer 2100 (Agilent). Microarrays were performed using Illumina HT-12 v4 expression Beadchips, according to the manufacturer's protocol. Briefly, 750 ng of cRNA was hybridized on the array overnight after which the array was washed and blocked. Then, by addition of streptavidin Cy-3 a fluorescent signal was developed. Arrays were scanned on an Illumina iScan reader and raw intensity values were background corrected in GenomeStudio (Illumina). Further data processing and statistical testing were performed with R and Bioconductor statistical software (www.bioconductor.org), using package lumi. Raw intensity values were transformed using variance stabilization and a quantile normalization was performed. A linear modelling approach with empirical Bayesian methods, as implemented in Limma package (54), was applied for differential expression analysis of the resulting probe-level expression values. A gene list, containing only those genes with an absolute 1.5-fold change between different treatments, was uploaded to Ingenuity Pathway Analysis (IPA) software and used for core analysis. Pathways or networks with a p-value of 0.05 were considered statistically significant.

CC(=O)N(O)CCCCCNC(=O)CCC(=O)N(O)CCCCCNC(=O)CCC(=O)N(O)CCCCCN [DFO, reference compound]
logFC(D142_ DFO - D142_BAS) (ProbeID ILMN_1699644): 2,52 | logFC(D142_ DFO - D142_BAS) RRAGD (ProbeID ILMN_1699772): 2,43 | logFC(D142_ DFO - D142_BAS) QPRT (ProbeID ILMN_1700268): -2,44 | logFC(D142_ DFO - D142_BAS) SULF1 (ProbeID ILMN_1702363): -2,42 | logFC(D142_ DFO - D142_BAS) TNFRSF19 (ProbeID ILMN_1704154): -2,00 | logFC(D142_ DFO - D142_BAS) SLC6A10P (ProbeID ILMN_1704446): 2,82 | logFC(D142_ DFO - D142_BAS) PHGDH (ProbeID ILMN_1704537): 2,18 | logFC(D142_ DFO - D142_BAS) ANGPTL4 (ProbeID ILMN_1707727): 6,19 | logFC(D142_ DFO - D142_BAS) TP53INP1 (ProbeID ILMN_1714108): 2,66 | logFC(D142_ DFO - D142_BAS) NNMT (ProbeID ILMN_1715508): -2,16 | logFC(D142_ DFO - D142_BAS) NGF (ProbeID ILMN_1716608): 2,73 | logFC(D142_ DFO - D142_BAS) C5orf46 (ProbeID ILMN_1718866): 2,59 | logFC(D142_ DFO - D142_BAS) BNIP3L (ProbeID ILMN_1718961): 2,24 | logFC(D142_ DFO - D142_BAS) SLC7A5 (ProbeID ILMN_1720373): 3,21 | logFC(D142_ DFO - D142_BAS) JMJD1A (ProbeID ILMN_1722532): 2,13 | logFC(D142_ DFO - D142_BAS) HK2 (ProbeID ILMN_1723486): 2,21 | logFC(D142_ DFO - D142_BAS) BNIP3 (ProbeID ILMN_1724658): 3,37 | logFC(D142_ DFO - D142_BAS) CTHRC1 (ProbeID ILMN_1725090): -2,13 | logFC(D142_ DFO - D142_BAS) CA9 (ProbeID ILMN_1725139): 3,31 | logFC(D142_ DFO - D142_BAS) SLC3A2 (ProbeID ILMN_1726456): 2,31 | logFC(D142_ DFO - D142_BAS) OLFML3 (ProbeID ILMN_1727532): -2,91 | logFC(D142_ DFO - D142_BAS) PRC1 (ProbeID ILMN_1728934): -2,66 | logFC(D142_ DFO - D142_BAS) STEAP1 (ProbeID ILMN_1733094): -2,15 | logFC(D142_ DFO - D142_BAS) COL12A1 (ProbeID ILMN_1733756): -2,56 | logFC(D142_ DFO - D142_BAS) PPP1R3C (ProbeID ILMN_1736670): 2,33 | logFC(D142_ DFO - D142_BAS) TMEM119 (ProbeID ILMN_1738116): -3,83 | logFC(D142_ DFO - D142_BAS) ULBP1 (ProbeID ILMN_1738407): 2,07 | logFC(D142_ DFO - D142_BAS) PLAT (ProbeID ILMN_1738742): 2,03 | logFC(D142_ DFO - D142_BAS) TUBA1A (ProbeID ILMN_1742981): -2,06 | logFC(D142_ DFO - D142_BAS) EGR2 (ProbeID ILMN_1743199): 2,34 | logFC(D142_ DFO - D142_BAS) C1QTNF5 (ProbeID ILMN_1744487): -2,69 | logFC(D142_ DFO - D142_BAS) ERO1L (ProbeID ILMN_1744963): 3,58 | logFC(D142_ DFO - D142_BAS) CEP55 (ProbeID ILMN_1747016): -2,32 | logFC(D142_ DFO - D142_BAS) EGLN1 (ProbeID ILMN_1749892): 2,28 | logFC(D142_ DFO - D142_BAS) IGFBP5 (ProbeID ILMN_1750324): 2,71 | logFC(D142_ DFO - D142_BAS) SESN2 (ProbeID ILMN_1751598): 2,18 | logFC(D142_ DFO - D142_BAS) PGK1 (ProbeID ILMN_1755749): 2,16 | logFC(D142_ DFO - D142_BAS) ALDOC (ProbeID ILMN_1755974): 2,33 | logFC(D142_ DFO - D142_BAS) ANKRD37 (ProbeID ILMN_1756417): 3,40 | logFC(D142_ DFO - D142_BAS) COQ2 (ProbeID ILMN_1756572): -2,03 | logFC(D142_ DFO - D142_BAS) NDUFA4L2 (ProbeID ILMN_1756573): 5,66 | logFC(D142_ DFO - D142_BAS) STC1 (ProbeID ILMN_1758164): 3,77 | logFC(D142_ DFO - D142_BAS) HIST1H2BD (ProbeID ILMN_1758623): 2,40 | logFC(D142_ DFO - D142_BAS) FAM107B (ProbeID ILMN_1758672): 2,18 | logFC(D142_ DFO - D142_BAS) LOC441019 (ProbeID ILMN_1761281): 2,16 | logFC(D142_ DFO - D142_BAS) AK3L1 (ProbeID ILMN_1764090): 2,74 | logFC(D142_ DFO - D142_BAS) OLFML2B (ProbeID ILMN_1765557): -3,16 | logFC(D142_ DFO - D142_BAS) LOC399942 (ProbeID ILMN_1765701): -2,67 | logFC(D142_ DFO - D142_BAS) ENO2 (ProbeID ILMN_1765796): 4,08
